Measurements from publication PMC4863456 (Journal of Chemical Information and Modeling, 2015).

How the values were obtained:
CB1 M6.55A mutation [1] = experiment: Published binding data, M6.55A mutation; settings: M6.55 to alanine
[2] = tested on: CB1 W5.43 mutated to alanine; settings: W5.43 to alanine; cited from earlier work
CB1 M6.55A mutation [3] = settings: M6.55 to alanine; cited from earlier work
[4] = tested on: CB1 K3.28 mutated to alanine; settings: K3.28 to alanine; cited from earlier work

## Cc1c(C(=O)NN2CCCCC2)nn(-c2ccc(Cl)cc2Cl)c1-c1ccc(Cl)cc1 [rimonabant, N-(Piperidin-1-yl)-5-(4-Chlorophenyl)-1-(2,4-Dichlorophenyl)-4-Methyl-1H -Pyrazole-3-Carboxamide]
CB1 M6.55A mutation [1]
  decrease in binding affinity upon mutation, as energy: 0.65 kcal/mol
[2]
  decrease in experimental binding affinity upon mutation: > 1000 fold
CB1 M6.55A mutation [3]
  decrease in binding affinity upon mutation: 3 fold
[4]
  decrease in experimental binding affinity upon mutation: 17.2 fold
